Reference: patent US20060235061A1, “Methods of using benzothiophenone derivatives to treat cancer or inflammation” (QLT,Inc., priority 2002, published 2006)

Target: T1, Caspase-3 (Homo sapiens, UniProt P42574)
T1 construct: purchased Calbiochem
T1 sequence (P42574 29-175 limits assumed): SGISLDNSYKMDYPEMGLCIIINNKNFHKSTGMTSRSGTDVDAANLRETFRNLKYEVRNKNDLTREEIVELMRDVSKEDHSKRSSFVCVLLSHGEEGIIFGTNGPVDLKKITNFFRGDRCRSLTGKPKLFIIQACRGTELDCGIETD
T1 sequence (P42574 176-277 limits assumed): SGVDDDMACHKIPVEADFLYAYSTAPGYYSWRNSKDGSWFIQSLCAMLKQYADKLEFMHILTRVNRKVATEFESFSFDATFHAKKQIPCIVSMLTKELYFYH
Assay: Caspase-3 selectivity assay (Calbiochem kit, colorimetric)
Format: biochemical
Excerpt: This is a selectivity assay providing information about the specificity of the compounds. A cysteine residue located within the active pocket of the catalytic domain that is conserved between the […] like caspase-3 and the protein tyrosine phosphatases like PTPN12 has a thiol group within this cysteine amino acid that may interact with specific R-groups with inhibiting compounds with in vitro enzyme inhibiting activity. Also, caspase inhibition can prevent apoptosis from occurring in some cases via the caspase cascade. As the potential for cross-inhibitory activity and nonselectivity exists, the caspase-3 assay is performed on PTN12 inhibitors.
The Calbiochem caspase-3 assay kit was utilized according to package insert instructions. The assay is useful for screening for caspase-3 inhibitors measuring the protease activity of caspase-3 and other caspase-3-like activities. Cleavage is monitored colorimetrically by measuring the increase in absorbance at 405 nm. Assays were performed in a 96-well microtiter plate format.

inhibition at 10 µM (@ 10 μM): 3% | inhibition at 100 µM (@ 100 μM): 27%
SMILES: O=C1C(=CC=CC=C2Sc3ccccc3N2CCCS(=O)(=O)O)Sc2ccccc21 [3-{2-[4-(3-Oxo-3H-benzo[b]thiophen-2-ylidene)-but-2-enylidene]-benzothiazol-3-yl}-propane-1-sulfonic acid]
